Experimental data: article PMC9966435, “Synthesis and Biological Evaluation of 3-Amidoquinuclidine Quaternary Ammonium Compounds as New Soft Antibacterial Agents” (Pharmaceuticals, 2023)
≈ marks a conversion by molar mass, not a printed value. Where two headings read alike, the source gives them in different places.

Experiments:
Format in all cases: cell-based
[1] = system: Pseudomonas aeruginosa ATTC27853; assay: Broth microdilution MIC in Mueller Hinton broth; settings: Pseudomonas aeruginosa
[2] = system: Listeria monocytogenes ATCC7644; assay: Broth microdilution MIC in Mueller Hinton broth; settings: Listeria monocytogenes
[3] = system: Salmonella enterica food isolate; assay: microbe, parasite or virus in culture; settings: Salmonella enterica, read-out: Minimum Inhibitory Concentration (MIC) Salmonella enterica food isolate
[4] = system: Enterococcus faecalis ATCC29212; assay: Broth microdilution MIC in Mueller Hinton broth; settings: Enterococcus faecalis
[5] = system: Staphylococcus aureus ATCC25923; assay: Broth microdilution MIC in Mueller Hinton broth
[6] = system: Bacillus cereus ATCC14579; assay: Broth microdilution MIC in Mueller Hinton broth; settings: Bacillus cereus
[7] = system: Staphylococcus aureus ATCC33591; assay: Broth microdilution MIC in Mueller Hinton broth; settings: Staphylococcus aureus
[8] = system: Escherichia coli ATTC25922; assay: Broth microdilution MIC in Mueller Hinton broth; settings: Escherichia coli
[9] = system: Staphylococcus aureus Clinical/MRSA; assay: Broth microdilution MIC in Mueller Hinton broth; settings: Staphylococcus aureus, MRSA, read-out: Minimum Inhibitory Concentration (MIC) Staphylococcus aureus Clinical/MRSA
[10] = system: Staphylococcus aureus ATCC 25923; assay: MIC in cation-adjusted Mueller Hinton broth (CA-MHB)
Experimental: A representative bacterial strain, Staphylococcus aureus ATCC 25923, was grown overnight in Mueller Hinton broth (MHB). The following day, the culture was diluted in tempered MHB and allowed to grow at 37 °C with constant shaking of 220 rpm. Once the bacterial culture reached the exponential growth phase (OD600 = 0.3–0.5), it was diluted in the cation-adjusted Mueller Hinton broth (CA-MHB) containing MgCl2 (10 mM) to the final cell count of 5 × 10^5 CFU/mL. The previously prepared 96-well plate contained twofold serial dilutions of the compounds to be tested, dissolved in CA-MHB, in the concentrations range of 125 µM to 0.12 µM. Then, 50 µL of the bacterial cells diluted in CA-MHB was pipetted in each well of the plate and incubated overnight at 37 °C with constant shaking at 220 rpm. The next day, the minimum inhibitory concentration (MIC) was determined as the lowest concentration of the compound that prevented supposed bacterial growth in the wells. Visually determined results of antibacterial activity were confirmed by the addition of 20 µL 2-(4-iodophenyl)-3-(4-nitrophenyl)-5-phenyltetrazolium chloride (INT) reagent (6 mg/mL). The MIC value of a drug in CA-MHB containing NaCl (85 mM) was determined using the same experimental technique.

[11] = system: Staphylococcus aureus ATCC 25923; assay: MIC in Dulbecco's Modified Eagle Medium (DMEM)
Experimental: The overnight culture of Staphylococcus aureus ATCC 25923 was diluted in fresh Mueller Hinton broth (MHB) and placed in an orbital shaker incubator (Gallenkamp, Cambridge, UK) at 37 °C and 220 rpm. Once the culture reached the exponential growth phase (OD600 = 0.3–0.5), cells were centrifuged (Heraeus, Biofuge primo R, Hanau, Germany) at room temperature at a speed of 4000× g. The cell pellet was resuspended in tempered Dulbecco’s Modified Eagle Medium (DMEM) to a final concentration of 5 × 10^5 CFU/mL. Then, 50 µL of as-prepared cells were added to a 96-well plate containing twofold serial dilutions of tested compounds in DMEM medium in the range of concentrations from 125 µM to 0.12 µM. The minimum inhibitory concentration (MIC) was visually assessed the next day. The MIC was determined as the lowest concentration of the substance at which no apparent bacterial growth was seen.

[12] = system: Staphylococcus aureus ATCC 25923; assay: Time-resolved growth analysis
Experimental: The growth kinetic experiments were performed to further investigate the efficacy of the selected 3-amidoquinnuclidine candidates. The candidates from series 1 (QC14-Me, QC14-Ally, QC16-Me, and QC16-Ally) and series 3 (QBn-C12, QBn-C14, and QBn-C16) were incubated at MIC and ½ MIC for 350 min with an appropriate number of CFU of Staphylococcus aureus ATCC 25923 at 37 °C with shaking. Time-resolved growth analysis was performed along with the control, in which bacterial growth was monitored without the presence of the antibacterial agent.
Time-resolved growth analysis was performed in the microtiter plate reader (Bio-Tek EL808, Winooski, VT, USA) by incubating the selected antibacterial agent with Staphylococcus aureus ATCC 25923. The exponentially grown culture (OD600 = 0.3–0.5) of S. aureus ATCC 25923 was diluted to a final concentration of 5 × 10^4 CFU/mL. Then, 50 µL of such prepared cell culture was added to the 96-well plates containing the MIC or ½ MIC of the compound to be tested. The plates were incubated at 37 °C for 350 min in the microplate reader with shaking. OD600 was recorded at 10 min intervals. The results obtained represent the mean of two independent experiments performed in triplicate.

[13] = ATTC27853, MHB, read-out: Minimum Inhibitory Concentration (MIC) Pseudomonas aeruginosa ATTC27853
[14] = ATCC7644, MHB, read-out: Minimum Inhibitory Concentration (MIC) Listeria monocytogenes ATCC7644
[15] = ATCC29212, MHB, read-out: Minimum Inhibitory Concentration (MIC) Enterococcus faecalis ATCC29212
[16] = Staphylococcus aureus, ATCC25923, MHB, read-out: Minimum Inhibitory Concentration (MIC) Staphylococcus aureus ATCC25923
[17] = ATCC14579, MHB, read-out: Minimum Inhibitory Concentration (MIC) Bacillus cereus ATCC14579
[18] = ATCC33591, MHB, read-out: Minimum Inhibitory Concentration (MIC) Staphylococcus aureus ATCC33591
[19] = ATTC25922, MHB, read-out: Minimum Inhibitory Concentration (MIC) Escherichia coli ATTC25922
[20] = ATTC27853, read-out: Minimum Inhibitory Concentration (MIC) Pseudomonas aeruginosa ATTC27853
[21] = ATCC7644, read-out: Minimum Inhibitory Concentration (MIC) Listeria monocytogenes ATCC7644
[22] = ATCC29212, read-out: Minimum Inhibitory Concentration (MIC) Enterococcus faecalis ATCC29212
[23] = Staphylococcus aureus, ATCC25923, read-out: Minimum Inhibitory Concentration (MIC) Staphylococcus aureus ATCC25923
[24] = ATCC14579, read-out: Minimum Inhibitory Concentration (MIC) Bacillus cereus ATCC14579
[25] = ATCC33591, read-out: Minimum Inhibitory Concentration (MIC) Staphylococcus aureus ATCC33591
[26] = ATTC25922, read-out: Minimum Inhibitory Concentration (MIC) Escherichia coli ATTC25922
[27] = ATCC25923, read-out: MIC CA-MHB
[28] = MHB, read-out: Minimum Inhibitory Concentration (MIC) Staphylococcus aureus ATCC25923
[29] = ATCC25923, cation-adjusted MHB, S. aureus ATCC 25923, read-out: MIC CA-MHB
[30] = ATCC25923, Dulbecco's Modified Eagle Medium, S. aureus ATCC 25923, read-out: MIC DMEM

Row | SMILES | MIC [1, 13] [µM] | MIC [2, 14] [µM] | MIC [3] [µM] | MIC [4, 15] [µM] | MIC [5, 16] [µM] | MIC [6, 17] [µM] | MIC [7, 18] [µM] | MIC [8, 19] [µM] | MIC [9] [µM] | MIC [1, 20] [µM] | MIC [2, 21] [µM] | MIC [4, 22] [µM] | MIC [5, 23] [µM] | MIC [6, 24] [µM] | MIC [7, 25] [µM] | MIC [8, 26] [µM] | MIC [5, 28] [µM] | other results
1 | O=C(NC1CN2CCC1CC2)c1ccccc1 (racemic) [QBn, (±)3-benzamidoquinuclidine] | > 100 | > 100 | > 100 | > 100 | > 100 | > 100 | > 100 | > 100 | > 100 | – | – | – | – | – | – | – | – | –
2 | CC(=O)NC1CN2CCC1CC2 (racemic) [QAc, (±)3-acetamidoquinuclidine] | – | – | > 100 | – | – | – | – | – | > 100 | > 100 | > 100 | > 100 | > 100 | > 100 | > 100 | > 100 | – | –
3 | C=CC[N+]12CCC(CC1)C(NC(=O)CCCCCCCCCCC)C2 (stereo not shown) [QC12-Ally] | – | – | > 125 | – | – | – | – | – | > 125 | > 125 | > 125 | > 125 | > 125 | > 125 | > 125 | > 125 | – | –
4 | CCCCCCCCCCCCCCCC(=O)NC1C[N+]2(C)CCC1CC2 (stereo not shown) [QC16-Me] | – | – | – | – | – | – | – | – | 31 | > 125 | 8 | 100 | 16 | > 100 | 25 | > 100 | 16 | MIC [10, 27]: 16 µM; MIC ([3]; MHB): > 125 µM; MIC ([11]; ATCC25923, read-out: MIC DMEM): 6 µM
5 | CCCCCCCCCCCC(=O)NC1C[N+]2(C)CCC1CC2 (stereo not shown) [QC12-Me] | – | 100 | > 125 | 100 | 100 | 100 | – | 100 | 100 | > 125 | – | – | – | – | > 125 | – | – | –
6 | CCCCCCCCCCCCCCCC[N+]12CCC(CC1)C(NC(C)=O)C2 (stereo not shown) [QAc-C16] | – | 8 | > 125 | 31 | – | – | – | – | > 125 | > 125 | – | – | > 125 | > 125 | > 125 | > 125 | – | –
7 | CCCCCCCCCCCCCC(=O)NC1CN2CCC1CC2 (stereo not shown) [QC14] | > 100 | 25 (≈ 8.41 µg/mL) | 100 (≈ 33.7 µg/mL) | 17 (≈ 5.72 µg/mL) | 60 (≈ 20.2 µg/mL) | 25 (≈ 8.41 µg/mL) | 50 (≈ 16.8 µg/mL) | 50 (≈ 16.8 µg/mL) | 50 (≈ 16.8 µg/mL) | – | – | – | – | – | – | – | – | –
8 | CCCCCCCCCCCCCCCC(=O)NC1CN2CCC1CC2 (stereo not shown) [QC16] | > 100 | 125 (≈ 45.6 µg/mL) | > 100 | > 100 | 62.5 (≈ 22.8 µg/mL) | > 100 | 100 (≈ 36.5 µg/mL) | > 100 | 250 (≈ 91.2 µg/mL) | – | – | – | – | – | – | – | – | –
9 | CCCCCCCCCCCC[N+]12CCC(CC1)C(NC(=O)c1ccccc1)C2 (stereo not shown) [QBn-C12] | > 125 | 31 | 63 | 31 | 63 | 63 | 63 | 63 | 63 | – | – | – | – | – | – | – | 63 | MIC [10, 29]: 25 µM; MIC [11, 30]: 3 µM
10 | NC1CN2CCC1CC2 (stereo not shown) [QNH2, 3-aminoquinuclidine] | – | – | > 100 | – | – | – | – | – | > 100 | > 100 | > 100 | > 100 | > 100 | > 100 | > 100 | > 100 | – | –
11 | CCCCCCCCCCCCCC[N+]12CCC(CC1)C(NC(=O)c1ccccc1)C2 (stereo not shown) [QBn-C14] | 63 | 4 | 31 | 8 | 31 | 63 | 31 | 31 | 31 | – | – | – | – | – | – | – | 31 | MIC [10, 29]: 25 µM; MIC [11, 30]: 3 µM
12 | CCCCCCCCCCCCCC(=O)NC1C[N+]2(C)CCC1CC2 (stereo not shown) [QC14-Me] | – | – | – | – | – | – | – | – | 60 | > 125 | 20 | 30 | 40 | 50 | 100 | 100 | 40 | inhibition of bacterial growth at ½ MIC [12]: unable to inhibit bacterial growth; MIC [10, 27]: 40 µM; MIC ([3]; MHB): > 125 µM; MIC ([11]; ATCC25923, read-out: MIC DMEM): 12 µM
13 | CCCCCCCCCCCCCCCC[N+]12CCC(CC1)C(NC(=O)c1ccccc1)C2 (stereo not shown) [QBn-C16] | > 125 | 4 | 63 | 4 | 63 | 63 | 31 | 31 | 31 | – | – | – | – | – | – | – | 63 | MIC [10, 29]: 6 µM; MIC [11, 30]: 3 µM
14 | CCCCCCCCCCCC[N+]12CCC(CC1)C(NC(C)=O)C2 (stereo not shown) [QAc-C12] | – | – | > 125 | – | – | – | – | – | > 125 | > 125 | > 125 | > 125 | > 125 | > 125 | > 125 | > 125 | – | –
15 | CCCCCCCCCCCCCC[N+]12CCC(CC1)C(NC(C)=O)C2 (stereo not shown) [QAc-C14] | – | 63 | > 125 | 63 | – | – | – | – | > 125 | > 125 | – | – | > 125 | > 125 | > 125 | > 125 | – | –
16 | CCCCCCCCCCCC(=O)NC1CN2CCC1CC2 (stereo not shown) [QC12] | > 100 | 100 (≈ 30.9 µg/mL) | > 100 | > 100 | > 100 | > 100 | 100 (≈ 30.9 µg/mL) | > 100 | > 100 | – | – | – | – | – | – | – | – | –
